Data published in PMC7104388 (Journal of medicinal chemistry, 2019).
Blank lines part the entries; values can stand above or below the molecule they belong to.

How the values were obtained:
Pf20S β5 [1] = target: T1, Pf20S β5 (Plasmodium falciparum, UniProt A0A5K1K7U1+Q8IJT1)
T1 sequence (Q8IJT1 61-271): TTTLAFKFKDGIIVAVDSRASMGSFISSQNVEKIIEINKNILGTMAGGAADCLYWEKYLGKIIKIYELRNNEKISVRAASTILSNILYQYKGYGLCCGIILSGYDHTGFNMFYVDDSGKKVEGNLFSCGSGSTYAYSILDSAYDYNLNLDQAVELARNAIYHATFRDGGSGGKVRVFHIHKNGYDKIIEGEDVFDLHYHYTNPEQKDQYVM
T1 sequence (A0A5K1K7U1 29-240): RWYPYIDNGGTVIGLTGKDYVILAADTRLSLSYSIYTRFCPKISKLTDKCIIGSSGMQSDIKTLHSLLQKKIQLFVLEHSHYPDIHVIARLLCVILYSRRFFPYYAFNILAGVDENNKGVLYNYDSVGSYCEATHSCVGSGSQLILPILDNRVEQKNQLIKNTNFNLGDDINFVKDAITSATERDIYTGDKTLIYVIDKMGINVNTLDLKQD

PAMPA permeability = type: in vitro ADME; conditions: pH 7.4
[2] = system: wild-type Pf Dd2 parasites; test: Dual drug assay and isobologram analysis, 72 h; type: cell-based, P. falciparum; conditions: WHZ-04 in combination with WLW-VS
[3] = system: P. falciparum clinical isolates (Uganda); test: Ex vivo 72-h growth inhibition of P. falciparum field isolates in Uganda; type: cell-based; conditions: Plasmodium falciparum, read-out: EC50 range against Ugandan isolates
Pf20S β5 [4] = target: T1, Pf20S β5; test: Pf20S active subunit labeling by MV151; type: binding, P. falciparum; conditions: Figure 2B
c-20S β5c = c-20S β5c (Homo sapiens, UniProt P20618+P28074); test: human c-20S β5c enzyme inhibition; type: biochemical
i-20S β5i = i-20S β5i (Homo sapiens, UniProt P20618+P28062); test: human i-20S β5i enzyme inhibition; type: biochemical
Pf20S β5 [5] = target: T1, Pf20S β5; test: biochemical; conditions: IC50 Pf20S β5, Table 3; mean of at least three independent experiments
Pf 3D7 = test: Parasite growth inhibition, erythrocytic stage, SYBR Green 72 h
P. falciparum Dd2 = test: Parasite growth inhibition, parental Dd2; conditions: Plasmodium falciparum

fold reduction in potency relative to WHZ-04 (Pf20S β5 [1]): 10 fold
SMILES: Cc1ccc(S(=O)(=O)N[C@@H](CC(=O)NC(C)(C)C)C(=O)NCCNC(=O)c2ccccc2Cl)cc1 [WHZ-08]

fold reduction in potency relative to WHZ-04 (Pf20S β5 [1]): 6 fold
SMILES: Cc1ccc(S(=O)(=O)N[C@@H](CC(=O)NC(C)(C)C)C(=O)NCCNC(=O)c2ccc(F)cc2)cc1 [WHZ-07]

SMILES: Cc1ccc(S(=O)(=O)N[C@@H](CC(=O)NC(C)(C)C)C(=O)NCCNC(=O)c2ccccc2)cc1 [WHZ-04]
PAMPA @ pH7.4 (PAMPA permeability): 137 nm/sec
type of interaction by isobologram analysis [2]: synergistic to additive
∑FIC ([2]; 72-h dual drug assay, three independent experiments): 0.52 ± 0.13

PAMPA @ pH7.4 (PAMPA permeability): 203 nm/sec
fold enhanced potency relative to WHZ-11 (Pf20S β5 [1]): 4.8 fold
SMILES: C#Cc1cccc(C(=O)NCCNC(=O)[C@H](CC(=O)NC(C)(C)C)NS(=O)(=O)c2ccc(C)cc2)c1 [WHZ-13]
EC50 [3]: 4.4 to 16 nM
inhibition of labeling of Pf20S β5 by MV151 (Pf20S β5 [4]): only inhibited the labeling of the Pf20S β5

SMILES: CCN(CC)CCCC(C)Nc1ccnc2cc(Cl)ccc12 (centres unmarked) [chloroquine, reference compound]
EC50 [3]: 4.5 to 27 nM

SMILES: Cc1ccc(S(=O)(=O)N[C@@H](CC(=O)NC(C)(C)C)C(=O)NCCNC(=O)c2c(O)cccc2F)cc1 [WHZ-20]
IC50 (c-20S β5c): > 100000 nM
fold of selectivity, β5c over Pf20S β5 (c-20S β5c; in parenthesis in Table 3): > 24.7 fold
IC50 (i-20S β5i): 9970 nM
fold of selectivity, β5i over Pf20S β5 (i-20S β5i; in parenthesis in Table 3): 2.5 fold
IC50 (Pf20S β5 [5]): 4060 nM

SMILES: Cc1ccc(S(=O)(=O)N[C@@H](CC(=O)NC(C)(C)C)C(=O)NCCNC(=O)c2ccccc2F)cc1 [WHZ-05]
PAMPA @ pH7.4 (PAMPA permeability): 105 nm/sec
fold decrease in activity against cultured parasites compared to PKS21221 (Pf 3D7): 4.7 fold

PAMPA @ pH7.4 (PAMPA permeability): 159 nm/sec
fold enhanced potency relative to WHZ-11 (Pf20S β5 [1]): 2.5 fold
SMILES: COc1cccc(C(=O)NCCNC(=O)[C@H](CC(=O)NC(C)(C)C)NS(=O)(=O)c2ccc(C)cc2)c1 [WHZ-12]

SMILES: Cc1cc(C(=O)N[C@@H](CC(=O)NC(C)(C)C)C(=O)NCCNC(=O)c2cccc(-n3cccn3)c2)no1 [TDI4258]
EC90 (P. falciparum Dd2): 60 nM
